One assay addresses T1, WEE1 (Homo sapiens, UniProt P30291+Q96SW2).
T1 construct: C-terminal ePL-tagged (DiscoverX, Fremont, CA) full-length WEE1 expression construct; expressed in transfected cells; host or cells: LentiX-HEK293T (Invitrogen), lentiviral transduction; co-expressing GSPT1-GN (G576N, lacking the first 158 amino acids)
The assay can be described thus: WEE1-ePL degradation assay (LentiX-WEE1-ePL-GSPT1-ND cells, InCELL Hunter luminescence, 4 h). The format is cell-based. The note with it: 293T-LentiX WEE1-ePL cells; for 293T-LentiX WEE1-ePL Degradation 4 hr (Ymin): lower limit of the fit (0 = luciferase inhibitor, Ymax = DMSO control); for DC50: read-out: 293T-LentiX WEE1-ePL Degradation 4 hr (EC50). Put shortly:
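LentiX-HEK293T cells stably expressing C-terminally ePL-tagged full-length WEE1 were treated with compounds in a 10-point, 3-fold dilution series starting at 1 uM or 10 uM for 4 h at 37 °C. Remaining WEE1-ePL was detected by InCELL Hunter luminescence, and EC50, Ymin and Ymax came from a four-parameter logistic fit against DMSO control.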

Another assay concerns MKN45 cells. Nature of the assay: MKN45 cell proliferation assay (Cell-Titer-Glo, 120 h). The note with it: for EC50: Homo sapiens, MKN-45, 120 h, Cell-Titer-Glo, growth inhibition, read-out: MKN45 Cell Prolif. 120 hr (EC50); for MKN45 Cell Prolif. 120 hr (Ymin-Obs): minimal percent of DMSO control observed in the concentrations tested. The format is cell-based. Put shortly:
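Cells seeded at 400/well onto pre-printed 10-point half-log dilutions (top 1 or 10 uM, 0.1% DMSO final), in triplicate, and grown 120 h at 37 C. Viability by Cell-Titer-Glo luminescence, blank-subtracted and normalised to DMSO; EC50 from four-parameter logistic fit, with observed minimal % of control recorded as Ymin-obs.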

As to `O=C1CCC(N2Cc3cc(O[C@H]4CCN(Cc5ccc6nc(N7CCCC7=O)ccc6c5)C4)ccc3C2=O)C(=O)N1` (stereo partly drawn) [3-(1-oxo-5-{[(3S)-1-{[2-(2-oxopyrrolidin-1-yl)quinolin-6-yl]methyl}pyrrolidin-3-yl]oxy}-2,3-dihydro-1H-isoindol-2-yl)piperidine-2,6-dione], at WEE1, the “293T-LentiX WEE1-ePL Degradation 4 hr (Ymin)” value is 31 and the DC50 came out at 1.83 nM. For the same compound, in the assay on MKN45 cells, the EC50 (as a rule, the midpoint of the concentration-response curve) is 7.19 nM and the “MKN45 Cell Prolif. 120 hr (Ymin-Obs)” value stood at 10.36.
In the same order, the values of `O=C1CCC(N2Cc3cc(O[C@H]4CCN(Cc5ccc6nc(N7CCOCC7=O)ccc6c5)C4)ccc3C2=O)C(=O)N1` (stereo partly drawn) [3-(1-oxo-5-{[(3S)-1-{[2-(3-oxomorpholin-4-yl)quinolin-6-yl]methyl}pyrrolidin-3-yl]oxy}-2,3-dihydro-1H-isoindol-2-yl)piperidine-2,6-dione] are 32, 2.43 nM, 2.91 nM and 6.88.
Regarding `CC#Cc1ncc2cc(CN3CC[C@H](Oc4ccc5c(c4)CN(C4CCC(=O)NC4=O)C5=O)C3)ccc2n1` (stereo partly drawn) [3-(1-oxo-5-{[(3S)-1-{[2-(prop-1-yn-1-yl)quinazolin-6-yl]methyl}pyrrolidin-3-yl]oxy}-2,3-dihydro-1H-isoindol-2-yl)piperidine-2,6-dione], at WEE1, the “293T-LentiX WEE1-ePL Degradation 4 hr (Ymin)” value was found to be 29 and the DC50 worked out at 38.9 nM. In addition, in the assay on MKN45 cells, the EC50 is 51.6 nM and the “MKN45 Cell Prolif. 120 hr (Ymin-Obs)” value amounted to 8.56.
On to `CC#Cc1ccc2cc(CN3CC[C@H](Oc4ccc5c(c4)CN(C4CCC(=O)NC4=O)C5=O)C3)ccc2n1` (stereo partly drawn) [3-(1-oxo-5-{[(3S)-1-{[2-(prop-1-yn-1-yl)quinolin-6-yl]methyl}pyrrolidin-3-yl]oxy}-2,3-dihydro-1H-isoindol-2-yl)piperidine-2,6-dione], for which, on WEE1, the “293T-LentiX WEE1-ePL Degradation 4 hr (Ymin)” value came to 29.33 and the DC50 was determined as 3.18 nM. In the assay with MKN45 cells, the EC50 is 2.02 nM and the “MKN45 Cell Prolif. 120 hr (Ymin-Obs)” value is recorded as 8.03.
For `O=C1CCC(N2Cc3cc(O[C@H]4CCN(Cc5ccc6nc(Oc7ccccn7)ccc6c5)C4)ccc3C2=O)C(=O)N1` (stereo partly drawn) [3-(1-oxo-5-{[(3S)-1-{[2-(pyridin-2-yloxy)quinolin-6-yl]methyl}pyrrolidin-3-yl]oxy}-2,3-dihydro-1H-isoindol-2-yl)piperidine-2,6-dione] the same measures were 35, 6.39 nM, 2.88 nM and 7.62.
For `O=C1CCC(N2Cc3cc(O[C@H]4CCN(Cc5ccc6nc(N7CCCC7)ccc6c5)C4)ccc3C2=O)C(=O)N1` (stereo partly drawn) [3-(1-oxo-5-{[(3S)-1-{[2-(pyrrolidin-1-yl)quinolin-6-yl]methyl}pyrrolidin-3-yl]oxy}-2,3-dihydro-1H-isoindol-2-yl)piperidine-2,6-dione] the same measures were 34, 3.97 nM, 6.02 nM and 11.865.
For `O=C1CCC(N2Cc3cc(O[C@H]4CCN(Cc5ccc6nc(C(F)(F)F)ncc6c5)C4)ccc3C2=O)C(=O)N1` (stereo partly drawn) [3-(1-oxo-5-{[(3S)-1-{[2-(trifluoromethyl)quinazolin-6-yl]methyl}pyrrolidin-3-yl]oxy}-2,3-dihydro-1H-isoindol-2-yl)piperidine-2,6-dione] the same measures were 29.67, 8.11 nM, 33.2 nM and 14.74.
For `O=C1CCC(N2Cc3cc(O[C@H]4CCN(Cc5cc6ccccc6nc5C(F)(F)F)C4)ccc3C2=O)C(=O)N1` (stereo partly drawn) [3-(1-oxo-5-{[(3S)-1-{[2-(trifluoromethyl)quinolin-3-yl]methyl}pyrrolidin-3-yl]oxy}-2,3-dihydro-1H-isoindol-2-yl)piperidine-2,6-dione], at WEE1, the “293T-LentiX WEE1-ePL Degradation 4 hr (Ymin)” value is 39.87 and the DC50 came out at 29.3 nM. Moreover, in the assay on MKN45 cells, the EC50 came to 257 nM and the “MKN45 Cell Prolif. 120 hr (Ymin-Obs)” value is 73.03.

These data come from patent US20240067632A1, “WEE1 Degrading Compounds and Uses Thereof” (Bristol-Myers Squibb Company, priority 2022, published 2024).
